Each structure is given as a SMILES string. pIC50: −log10 of the molar value.

In the assay the target is T1, MAT2A homodimer (Homo sapiens, UniProt P31153).
T1 construct: inferred from the Ni sepharose purification and imidazole elution; made in house; host or cells: SF9 insect cells, recombinant baculovirus (Bac to Bac, pFASTBAC1)
T1 sequence (P31153 whole entry): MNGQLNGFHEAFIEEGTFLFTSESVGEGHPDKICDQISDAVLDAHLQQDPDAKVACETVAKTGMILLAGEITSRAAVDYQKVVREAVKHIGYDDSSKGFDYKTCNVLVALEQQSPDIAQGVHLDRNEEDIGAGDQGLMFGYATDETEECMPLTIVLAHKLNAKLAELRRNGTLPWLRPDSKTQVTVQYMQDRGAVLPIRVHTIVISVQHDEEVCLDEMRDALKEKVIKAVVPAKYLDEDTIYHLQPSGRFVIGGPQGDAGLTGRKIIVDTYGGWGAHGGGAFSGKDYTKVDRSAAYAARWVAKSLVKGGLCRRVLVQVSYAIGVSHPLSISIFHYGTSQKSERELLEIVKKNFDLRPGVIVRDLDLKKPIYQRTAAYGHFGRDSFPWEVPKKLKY
Description: MAT2A biochemical assay (liberated phosphate, PiColorLock Gold). As to conditions: Table 5a; MAT2A biochemical assay; read-out: Enzyme Inhibition. Here is the method: Mat2A protein was expressed by recombinant baculovirus in SF9 infected cells using the Bac to Bac system cloned into the pFASTBAC1 vector (Invitrogen, Carlsbad, Calif.). Recombinant MAT2A was isolated from the cell lysate of 150 g of infected cells using HP Ni sepharose column chromatography. Recombinant MAT2A homodimer was eluted with 250 and 500 mM imidazole, and fractions containing MAT2A were identified by sodium dodecyl sulfate polyacrylamide gel electrophoresis and pooled.
Test compound was prepared in 100% dimethyl sulfoxide (DMSO) at 50× the desired final concentration. A 1 μL volume of compound dilution was added to 40 μL of enzyme dilution and the mixture was allowed to equilibrate for 60 minutes at 25° C. The enzymatic assay was initiated by the addition of 10 μL of substrate mix (500 μM ATP, pH 7.0, 400 μM L-methionine in 1× assay buffer), and the mixture was incubated for a further 60 minutes at 25° C. The reaction was halted and the liberated phosphate released by the enzyme in stoichiometric amounts by the production of S-adenosyl methionine (SAM) was measured using the PiColorLock Gold kit (Innova Biosciences, UK). Absolute product amounts were determined by comparison to a standard curve of potassium phosphate buffer, pH 8.0.
With `COc1ccc(N2Cc3cnc(NCC(F)(F)F)nc3N(c3cn[nH]c3)C2=O)cc1` [Example 194, 3-(4-methoxyphenyl)-1-(1H-pyrazol-4-yl)-7-((2,2,2-trifluoroethyl)amino)-3,4-dihydropyrimido[4,5-d]pyrimidin-2(1H)-one], the pIC50 is 5.00 to 6.00. As for `COc1ccc(N2Cc3cnc(NCC(F)(F)F)nc3N(c3ccc(O)nc3)C2=O)cc1` [Example 197, 1-(6-hydroxypyridin-3-yl)-3-(4-methoxyphenyl)-7-((2,2,2-trifluoroethyl)amino)-3,4-dihydropyrimido[4,5-d]pyrimidin-2(1H)-one], the figure is 5.00 to 6.00; as for `COc1ccc(N2Cc3cnc(NCC(F)(F)F)nc3N(c3ccc(SC)cc3)C2=O)cc1` [Example 198, 3-(4-methoxyphenyl)-1-(4-(methylthio)phenyl)-7-((2,2,2-trifluoroethyl)amino)-3,4-dihydropyrimido[4,5-d]pyrimidin-2(1H)-one], more than 7.00; as for `CCC(=O)c1ccc(N2C(=O)N(c3ccc(OC)cc3)Cc3cnc(NCC(F)(F)F)nc32)cc1` [Example 199, 3-(4-methoxyphenyl)-1-(4-propionylphenyl)-7-((2,2,2-trifluoroethyl)amino)-3,4-dihydropyrimido[4,5-d]pyrimidin-2(1H)-one], 6.00 to 7.00. Under `COc1ccc(N2Cc3cnc(NCC(F)(F)F)nc3N(c3cc4ccccc4s3)C2=O)cc1` [Example 200, 1-(benzo[b]thiophen-2-yl)-3-(4-methoxyphenyl)-7-((2,2,2-trifluoroethyl)amino)-3,4-dihydropyrimido[4,5-d]pyrimidin-2(1H)-one] stands more than 7.00; under `COc1ccc(N2Cc3cnc(NCC(F)(F)F)nc3N(c3ccc(N(C)C)cc3)C2=O)cc1` [Example 201, 1-(4-(dimethylamino)phenyl)-3-(4-methoxyphenyl)-7-((2,2,2-trifluoroethyl)amino)-3,4-dihydropyrimido[4,5-d]pyrimidin-2(1H)-one], more than 7.00. For `COC(=O)c1ccc(N2C(=O)N(c3ccc(OC)cc3)Cc3cnc(NCC(F)(F)F)nc32)cc1` [Example 203, methyl 4-(3-(4-methoxyphenyl)-2-oxo-7-((2,2,2-trifluoroethyl)amino)-3,4-dihydropyrimido[4,5-d]pyrimidin-1(2H)-yl)benzoate], the pIC50 was 6.00 to 7.00. Under `COc1ccc(N2Cc3cnc(NCC(F)(F)F)nc3N(c3ccc(N)cc3)C2=O)cc1` [Example 204, 1-(4-aminophenyl)-3-(4-methoxyphenyl)-7-((2,2,2-trifluoroethyl)amino)-3,4-dihydropyrimido[4,5-d]pyrimidin-2(1H)-one] stands 6.00 to 7.00; under `COC(=O)Cc1ccc(N2C(=O)N(c3ccc(OC)cc3)Cc3cnc(NCC(F)(F)F)nc32)cc1` [Example 205, methyl 2-(4-(3-(4-methoxyphenyl)-2-oxo-7-((2,2,2-trifluoroethyl)amino)-3,4-dihydropyrimido[4,5-d]pyrimidin-1(2H)-yl)phenyl)acetate], 5.00 to 6.00.

Consider `COc1ccc(N2Cc3cnc(NCC(F)(F)F)nc3N(c3ccc(-c4ccsn4)cc3)C2=O)cc1` [Example 207, 1-(4-(isothiazol-3-yl)phenyl)-3-(4-methoxyphenyl)-7-((2,2,2-trifluoroethyl)amino)-3,4-dihydropyrimido[4,5-d]pyrimidin-2(1H)-one], for which the pIC50 is 5.00 to 6.00. Under `COc1ccc(N2Cc3cnc(NCC(F)(F)F)nc3N(c3cccc(OC)c3)C2=O)cc1` [Example 208, 1-(3-methoxyphenyl)-3-(4-methoxyphenyl)-7-((2,2,2-trifluoroethyl)amino)-3,4-dihydropyrimido[4,5-d]pyrimidin-2(1H)-one] stands 6.00 to 7.00. Under `COCc1ccc(N2C(=O)N(c3ccc(OC)cc3)Cc3cnc(NCC(F)(F)F)nc32)cc1` [Example 209, 1-(4-(methoxymethyl)phenyl)-3-(4-methoxyphenyl)-7-((2,2,2-trifluoroethyl)amino)-3,4-dihydropyrimido[4,5-d]pyrimidin-2(1H)-one] stands 6.00 to 7.00; under `COc1ccc(N2Cc3cnc(NCC(F)(F)F)nc3N(c3ccc(-c4cscn4)cc3)C2=O)cc1` [Example 210, 3-(4-methoxyphenyl)-1-(4-(thiazol-4-yl)phenyl)-7-((2,2,2-trifluoroethyl)amino)-3,4-dihydropyrimido[4,5-d]pyrimidin-2(1H)-one], 6.00 to 7.00. In the case of `COc1ccc(N2Cc3cnc(NCC(F)(F)F)nc3N(c3ccc(-c4cn[nH]c4)cc3)C2=O)cc1` [Example 211, 1-(4-(1H-pyrazol-4-yl)phenyl)-3-(4-methoxyphenyl)-7-((2,2,2-trifluoroethyl)amino)-3,4-dihydropyrimido[4,5-d]pyrimidin-2(1H)-one], the pIC50 was 6.00 to 7.00.

Take `COc1ccc(N2Cc3cnc(NCC(F)(F)F)nc3N(c3ccc(C(C)C)cc3)C2=O)cc1` [Example 212, 1-(4-isopropylphenyl)-3-(4-methoxyphenyl)-7-((2,2,2-trifluoroethyl)amino)-3,4-dihydropyrimido[4,5-d]pyrimidin-2(1H)-one]: the pIC50 is 6.00 to 7.00.

Take `O=C1N(c2ccc3nccn3c2)Cc2cnc(NCC(F)(F)F)nc2N1c1ccc(C2CC2)cc1` [Example 213, 1-(4-cyclopropylphenyl)-3-(imidazo[1,2-a]pyridin-6-yl)-7-((2,2,2-trifluoroethyl)amino)-3,4-dihydropyrimido[4,5-d]pyrimidin-2(1H)-one]: the pIC50 was more than 7.00. As for `Cn1cc(N2Cc3cnc(NCC(F)(F)F)nc3N(c3ccc(-c4nc[nH]n4)cc3)C2=O)ccc1=O` [Example 221, 1-(4-(1H-1,2,4-triazol-3-yl)phenyl)-3-(1-methyl-6-oxo-1dihydropyridin-3-yl)-7-((2,2,2-trifluoroethyl)amino)-3,4-dihydropyrimido[4,5-d]pyrimidin-2(1H)-one], the figure is 6.00 to 7.00; as for `O=C1N(c2ccc3nccn3c2)Cc2cnc(NCC(F)(F)F)nc2N1c1ccc(-c2nc[nH]n2)cc1` [Example 222, 1-(4-(1H-1,2,4-triazol-3-yl)phenyl)-3-(imidazo[1,2-a]pyridin-6-yl)-7-((2,2,2-trifluoroethyl)amino)-3,4-dihydropyrimido[4,5-d]pyrimidin-2(1H)-one], more than 7.00; as for `O=C1N(c2ccnnc2)Cc2cnc(NCC(F)(F)F)nc2N1c1ccc(OC(F)F)cc1` [Example 224, 1-(4-(difluoromethoxy)phenyl)-3-(pyridazin-4-yl)-7-((2,2,2-trifluoroethyl)amino)-3,4-dihydropyrimido[4,5-d]pyrimidin-2(1H)-one], 5.00 to 6.00. As to `O=C1N(c2ccc3nccn3c2)Cc2cnc(NCC(F)(F)F)nc2N1c1ccc(OC(F)F)cc1` [Example 225, 1-(4-(difluoromethoxy)phenyl)-3-(imidazo[1,2-a]pyridin-6-yl)-7-((2,2,2-trifluoroethyl)amino)-3,4-dihydropyrimido[4,5-d]pyrimidin-2(1H)-one], the pIC50 is more than 7.00. On to `O=C1N(c2ccc3ncccc3c2)Cc2cnc(NCC(F)(F)F)nc2N1c1ccc(C2CC2)cc1` [Example 226, 1-(4-cyclopropylphenyl)-3-(quinolin-6-yl)-7-((2,2,2-trifluoroethyl)amino)-3,4-dihydropyrimido[4,5-d]pyrimidin-2(1H)-one], for which the pIC50 is more than 7.00.

For the molecule `O=C1N(c2ccc3ncccc3c2)Cc2cnc(NCC(F)(F)F)nc2N1c1ccc(OC(F)F)cc1` [Example 227, 1-(4-(difluoromethoxy)phenyl)-3-(quinolin-6-yl)-7-((2,2,2-trifluoroethyl)amino)-3,4-dihydropyrimido[4,5-d]pyrimidin-2(1H)-one], the pIC50 was 6.00 to 7.00.

For the molecule `COc1ccc(N2C(=O)N(c3ccc4nncn4c3)Cc3cnc(NCC(F)(F)F)nc32)cc1` [Example 229, 3-([1,2,4]triazolo[4,3-a]pyridin-6-yl)-1-(4-methoxyphenyl)-7-((2,2,2-trifluoroethyl)amino)-3,4-dihydropyrimido[4,5-d]pyrimidin-2(1H)-one], the pIC50 is more than 7.00. Under `COc1ccc(N2C(=O)N(c3ccncc3)Cc3cnc(NCC(F)(F)F)nc32)cc1` [Example 230, 1-(4-methoxyphenyl)-3-(pyridin-4-yl)-7-((2,2,2-trifluoroethyl)amino)-3,4-dihydropyrimido[4,5-d]pyrimidin-2(1H)-one] stands more than 7.00. As for `COc1ccc(N2C(=O)N(c3ccc(OC)cn3)Cc3cnc(NCC(F)(F)F)nc32)cc1` [Example 238, 1-(4-methoxyphenyl)-3-(5-methoxypyridin-2-yl)-7-((2,2,2-trifluoroethyl)amino)-3,4-dihydropyrimido[4,5-d]pyrimidin-2(1H)-one], the figure is 6.00 to 7.00; as for `COc1ccc(N2C(=O)N(c3ccc(OC)nc3)Cc3cnc(NCC(F)(F)F)nc32)cc1` [Example 239, 1-(4-methoxyphenyl)-3-(6-methoxypyridin-3-yl)-7-((2,2,2-trifluoroethyl)amino)-3,4-dihydropyrimido[4,5-d]pyrimidin-2(1H)-one], 6.00 to 7.00. With `COc1ccc(N2Cc3cnc(NCC(F)(F)F)nc3N(c3ccc4ncccc4c3)C2=O)cc1` [Example 240], the pIC50 was 6.00 to 7.00. Under `COc1ccc(N2Cc3cnc(NCC(F)(F)F)nc3N(c3ccc(C)cc3)C2=O)cc1` [Example 243, 3-(4-methoxyphenyl)-1-(p-tolyl)-7-((2,2,2-trifluoroethyl)amino)-3,4-dihydropyrimido[4,5-d]pyrimidin-2(1H)-one] stands 6.00 to 7.00.

For the origin of these results see patent US20220098203A1 (priority 2018, published 2022).
